Results taken from patent publication US20250346593A1, “IMIDAZO(1,2-1)PYRIDINE DERIVATIVES AS RIPK2 INHIBITORS” (Interline Therapeutics, Inc., priority 2022, published 2025).
Read-outs that look alike come from different tables or passages of the source. One block for each compound: values may come before it.

What was measured:
[1] = molecular target: GST-RIPK2 fusion protein (human RIPK2 amino acids 1-310) (Homo sapiens (Human), UniProt O43353); test: RIPK2 binding competition assay (TR-FRET, Tracer 199)
[2] = tested on: NF-κB pathway (SEAP) in THP1-Dual cells; test: THP-1 Dual cell SEAP assay (L18-MDP stimulated); assay type: cell-based; conditions: Homo sapiens, THP1-Dual, read-out: NFkB THP1 IC50
[3] = read-out: RIPK2 IC50, RIPK2 binding competition assay

Sequence of GST-RIPK2 fusion protein (human RIPK2 amino acids 1-310) (O43353 1-310): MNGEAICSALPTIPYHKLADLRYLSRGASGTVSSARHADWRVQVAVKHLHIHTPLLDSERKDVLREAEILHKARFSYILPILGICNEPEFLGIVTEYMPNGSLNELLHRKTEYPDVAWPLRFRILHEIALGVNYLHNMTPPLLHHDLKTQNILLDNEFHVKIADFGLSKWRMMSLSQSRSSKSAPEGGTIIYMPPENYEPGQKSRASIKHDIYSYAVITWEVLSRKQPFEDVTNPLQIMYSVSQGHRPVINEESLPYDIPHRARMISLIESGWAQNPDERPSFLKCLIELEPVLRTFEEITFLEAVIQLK

IC50 [1]: 0.0025 to 0.02 µM
IC50 [2]: > 1 µM
Structure (SMILES): CCCS(=O)(=O)Nc1cc(F)cc(-c2cnc3cc(OC)c(S(=O)(=O)C(C)(C)C)cn23)c1F [Example 292, N-(3-(6-(tert-butylsulfonyl)-7-methoxyimidazo[1,2-a]pyridin-3-yl)-2,5-difluorophenyl)propane-1-sulfonamide]

Structure (SMILES): CCCS(=O)(=O)Nc1ccc(-c2cnc3cc(OC)c(S(=O)(=O)C(C)(C)C)cn23)cc1OC(F)F [Example 293, N-(4-(6-(tert-butylsulfonyl)-7-methoxyimidazo[1,2-a]pyridin-3-yl)-2-(difluoromethoxy)phenyl) propane-1-sulfonamide]
IC50 [1, 3]: > 0.02 µM
IC50 [2]: > 1 µM

IC50 [1]: < 0.001 µM
IC50 [2]: < 0.05 µM
Structure (SMILES): CCS(=O)(=O)Nc1cc(-c2cnc3cc(OC)c(S(=O)(=O)C(C)(C)C)cn23)cc(F)c1OC [Example 294, N-(5-(6-(tert-butylsulfonyl)-7-methoxyimidazo[1,2-a]pyridin-3-yl)-3-fluoro-2-methoxyphenyl)ethane-sulfonamide]

IC50 [1]: 0.001 to 0.0025 µM
IC50 [2]: 0.05 to 0.25 µM
Structure (SMILES): CCCS(=O)(=O)Nc1cc(OC(F)F)cc(-c2cnc3cc(OC)c(S(=O)(=O)C(C)(C)C)cn23)c1 [Example 295, N-(3-(6-(tert-butylsulfonyl)-7-methoxyimidazo[1,2-a]pyridin-3-yl)-5-(difluoromethoxy)phenyl) propane-1-sulfonamide]

Structure (SMILES): CC(C)(C)S(=O)(=O)c1ccn2ncc(-c3cc(F)nc(NCCCO)c3)c2c1 [Example 296, 3-((4-(5-(tert-butylsulfonyl)pyrazolo [1,5-a]pyridin-3-yl)-6-fluoropyridin-2-yl)amino)propan-1-ol]
IC50 [1]: 0.001 to 0.0025 µM
IC50 [2]: < 0.05 µM

IC50 [1]: 0.0025 to 0.02 µM
IC50 [2]: 0.05 to 0.25 µM
Structure (SMILES): CC(C)(C)S(=O)(=O)c1ccn2ncc(-c3cc(N)nc(F)c3)c2c1 [Example 298, 4-(5-(tert-Butylsulfonyl)pyrazolo[1,5-a]pyridin-3-yl)-6-fluoropyridin-2-amine]

IC50 [1]: > 0.02 µM
IC50 [2]: > 1 µM
Structure (SMILES): CC(C)(C)S(=O)(=O)c1ccn2ncc(-c3ccc(F)nc3N)c2c1 [Example 299, 3-(5-(tert-butylsulfonyl)pyrazolo[1,5-a]pyridin-3-yl)-6-fluoropyridin-2-amine]

Structure (SMILES): CC(C)(C)S(=O)(=O)c1ccn2ncc(-c3ccc(N)nc3F)c2c1 [Example 300, 5-(5-(tert-butylsulfonyl)pyrazolo[1,5-a]pyridin-3-yl)-6-fluoropyridin-2-amine]
IC50 [1]: > 0.02 µM
IC50 [2]: > 1 µM

Structure (SMILES): COc1cc2ncc(-c3cc(F)nc(NCC4CCNCC4)c3)n2cc1S(=O)(=O)C(C)(C)C [Example 301, 4-(6-(tert-butylsulfonyl)-7-methoxyimidazo[1,2-a]pyridin-3-yl)-6-fluoro-N-(piperidin-4-ylmethyl)pyridin-2-amine]
IC50 [1]: 0.001 to 0.0025 µM
IC50 [2]: 0.05 to 0.25 µM

Structure (SMILES): COc1cc(-c2cnc3cc(OC)c(S(=O)(=O)C(C)(C)C)cn23)cc(F)n1 [Example 302, 6-(tert-butylsulfonyl)-3-(2-fluoro-6-methoxypyridin-4-yl)-7-methoxyimidazo[1,2-a]pyridine]
IC50 [1]: 0.0025 to 0.02 µM
IC50 [2]: 0.25 to 1 µM

Structure (SMILES): CCCS(=O)(=O)Nc1cc(-c2cnc3cc(OC)c(S(=O)(=O)C(C)(C)C)cn23)cc(F)n1 [Example 304, N-(4-(6-(tert-butylsulfonyl)-7-methoxyimidazo[1,2-a]pyridin-3-yl)-6-fluoropyridin-2-yl)propane-1-sulfonamide]
IC50 [1, 3]: > 0.02 µM
IC50 [2]: > 1 µM

Structure (SMILES): COc1cc2ncc(-c3cc(F)c(OC)c(Br)c3)n2cc1S(=O)(=O)C(C)(C)C [Example 305, 3-(3-bromo-5-fluoro-4-methoxyphenyl)-6-(tert-butylsulfonyl)-7-methoxyimidazo[1,2-a]pyridine]
IC50 [1]: 0.0025 to 0.02 µM
IC50 [2]: > 1 µM

Structure (SMILES): COc1cc2ncc(-c3cc(F)c(OCCO)c(Br)c3)n2cc1S(=O)(=O)C(C)(C)C [Example 306, 2-(2-bromo-4-(6-(tert-butylsulfonyl)-7-methoxyimidazo[1,2-a]pyridin-3-yl)-6-fluorophenoxy)ethan-1-ol]
IC50 [1]: 0.0025 to 0.02 µM
IC50 [2]: 0.05 to 0.25 µM

Structure (SMILES): COc1cc2ncc(-c3cc(F)c(OC)c(N4CC[C@@H](O)C4=O)c3)n2cc1S(=O)(=O)C(C)(C)C [Example 307, (R)-1-(5-(6-(tert-butylsulfonyl)-7-methoxyimidazo[1,2-a]pyridin-3-yl)-3-fluoro-2-methoxyphenyl)-3-hydroxypyrrolidin-2-one]
IC50 [1, 3]: > 0.02 µM
IC50 [2]: > 1 µM

Structure (SMILES): COc1cc2ncc(-c3cc(F)c(OC)c(NCCNC(=O)OC(C)(C)C)c3)n2cc1S(=O)(=O)C(C)(C)C [Example 308, tert-butyl (2-((5-(6-(tert-butylsulfonyl)-7-methoxyimidazo[1,2-a]pyridin-3-yl)-3-fluoro-2-methoxyphenyl)amino)ethyl)carbamate]
IC50 [1]: 0.001 to 0.0025 µM
IC50 [2]: 0.05 to 0.25 µM

Structure (SMILES): COc1cc2ncc(-c3cc(NCCCO)ncc3C)n2cc1S(=O)(=O)C(C)(C)C [Example 309, 3-({4-[7-Methoxy-6-(2-methylpropane-2-sulfonyl)imidazo[1,2-a]pyridin-3-yl]-5-methylpyridin-2-yl}amino)propan-1-ol]
IC50 [1, 3]: > 0.02 µM
IC50 [2]: > 1 µM

Structure (SMILES): COc1cc2ncc(-c3cc(NCCCO)ncc3F)n2cc1S(=O)(=O)C(C)(C)C [Example 310, 3-((4-(6-(tert-butylsulfonyl)-7-methoxyimidazo[1,2-a]pyridin-3-yl)-5-fluoropyridin-2-yl)amino)propan-1-ol]
IC50 [1, 3]: > 0.02 µM
IC50 [2]: > 1 µM

Structure (SMILES): COc1cc2ncc(-c3cc(C)c(OC)c(NCCCO)n3)n2cc1S(=O)(=O)C(C)(C)C [Example 311, 3-((6-(6-(tert-butylsulfonyl)-7-methoxyimidazo[1,2-a]pyridin-3-yl)-3-methoxy-4-methylpyridin-2-yl)amino)propan-1-ol]
IC50 [1]: 0.0025 to 0.02 µM
IC50 [2]: 0.25 to 1 µM

Structure (SMILES): COc1cc2ncc(-c3ccc(OC)c(NCCCO)n3)n2cc1S(=O)(=O)C(C)(C)C [Example 312, 3-((6-(6-(tert-butylsulfonyl)-7-methoxyimidazo[1,2-a]pyridin-3-yl)-3-methoxypyridin-2-yl)amino)propan-1-ol]
IC50 [1]: 0.0025 to 0.02 µM
IC50 [2]: 0.25 to 1 µM

Structure (SMILES): CCCS(=O)(=O)Nc1nc(-c2cnc3cc(OC)c(S(=O)(=O)C(C)(C)C)cn23)ccc1OC(F)(F)F [Example 313, N-(6-(6-(tert-butylsulfonyl)-7-methoxyimidazo[1,2-a]pyridin-3-yl)-3-(trifluoromethoxy)pyridin-2-yl)propane-1-sulfonamide]
IC50 [1, 3]: > 0.02 µM
IC50 [2]: > 1 µM

Structure (SMILES): COc1cc2ncc(-c3cc(F)nc(F)c3)n2cc1S(=N)(=O)C(C)(C)C (centres unmarked) [Example 315, tert-butyl(3-(2,6-difluoropyridin-4-yl)-7-methoxyimidazo[1,2-a]pyridin-6-yl)(imino)-λ^6-sulfanone]
IC50 [1, 3]: > 0.02 µM
IC50 [2]: > 1 µM

Structure (SMILES): COc1cc2ncc(-c3cc(F)nc(NCC4CCN(C(C)=O)CC4)c3)n2cc1S(=O)(=O)C(C)(C)C [Example 317, 1-(4-(((4-(6-(tert-butylsulfonyl)-7-methoxyimidazo[1,2-a]pyridin-3-yl)-6-fluoropyridin-2-yl)amino)methyl)piperidin-1-yl)ethan-1-one]
IC50 [1, 3]: < 0.001 µM
IC50 [2]: < 0.05 µM

Structure (SMILES): COc1cc2ncc(-c3cc(F)c(OC)c(NCCCO)c3)n2cc1S(=O)(=O)C(C)(C)C [Example 319, 3-((5-(6-(tert-butylsulfonyl)-7-methoxyimidazo[1,2-a]pyridin-3-yl)-3-fluoro-2-methoxyphenyl)amino)propan-1-ol]
IC50 [1]: 0.001 to 0.0025 µM
IC50 [2]: 0.05 to 0.25 µM

Structure (SMILES): COc1cc2ncc(-c3cccc(NCCCO)c3)n2cc1S(=O)(=O)C(C)(C)C [Example 320, 3-((3-(6-(tert-butylsulfonyl)-7-methoxyimidazo[1,2-a]pyridin-3-yl)phenyl)amino)propan-1-ol]
IC50 [1, 3]: > 0.02 µM
IC50 [2]: > 1 µM

Structure (SMILES): COc1cc2ncc(-c3cc(C)c(OC)c(NCCCO)c3)n2cc1S(=O)(=O)C(C)(C)C [Example 322, 3-((5-(6-(tert-butylsulfonyl)-7-methoxyimidazo[1,2-a]pyridin-3-yl)-2-methoxy-3-methylphenyl)amino)propan-1-ol]
IC50 [1]: 0.0025 to 0.02 µM
IC50 [2]: > 1 µM

Structure (SMILES): COc1cc2ncc(-c3cnn(CCCO)c3)n2cc1S(=O)(=O)C(C)(C)C [Example 323, 3-(4-(6-(tert-butylsulfonyl)-7-methoxyimidazo[1,2-a]pyridin-3-yl)-1H-pyrazol-1-yl)propan-1-ol]
IC50 [1, 3]: > 0.02 µM
IC50 [2]: > 1 µM

Structure (SMILES): COc1cc2ncc(-c3cnn(CCO)c3)n2cc1S(=O)(=O)C(C)(C)C [Example 324, 2-(4-(6-(tert-butylsulfonyl)-7-methoxyimidazo[1,2-a]pyridin-3-yl)-1H-pyrazol-1-yl)ethan-1-ol]
IC50 [1, 3]: > 0.02 µM
IC50 [2]: > 1 µM

Structure (SMILES): CCCS(=O)(=O)N(C)c1cc(-c2cnc3cc(OC)c(S(=O)(=O)C(C)(C)C)cn23)cc(OC)c1C [Example 325, N-(5-(6-(tert-butylsulfonyl)-7-methoxyimidazo[1,2-a]pyridin-3-yl)-3-methoxy-2-methylphenyl)-N-methylpropane-1-sulfonamide]
IC50 [1, 3]: > 0.02 µM
IC50 [2]: > 1 µM

Structure (SMILES): CNc1cc(-c2cnc3cc(OC)c(S(=O)(=O)C(C)(C)C)cn23)cc(OC)c1OC [Example 326, 5-(6-(tert-butylsulfonyl)-7-methoxyimidazo[1,2-a]pyridin-3-yl)-2,3-dimethoxy-N-methylaniline]
IC50 [1]: 0.001 to 0.0025 µM
IC50 [2]: 0.05 to 0.25 µM

Structure (SMILES): COc1cc2ncc(-c3cc(Cl)nc(NCCCO)c3)n2cc1S(=O)(=O)C(C)(C)C [Example 327, 3-((4-(6-(tert-butylsulfonyl)-7-methoxyimidazo[1,2-a]pyridin-3-yl)-6-chloropyridin-2-yl)amino)propan-1-ol]
IC50 [1]: 0.001 to 0.0025 µM
IC50 [2]: < 0.05 µM

Structure (SMILES): COc1cc2ncc(-c3cc(N)c(=O)n(C(F)F)c3)n2cc1S(=O)(=O)C(C)(C)C [Example 328, 3-amino-5-(6-(tert-butylsulfonyl)-7-methoxyimidazo[1,2-a]pyridin-3-yl)-1-(difluoromethyl) pyridin-2(1H)-one]
IC50 [1, 3]: > 0.02 µM
IC50 [2]: > 1 µM
